Test results from patent publication US7488751B2, “Antidepressant cycloalkylamine derivatives of 2,3-dihydro-1,4-benzodioxan” (Wyeth, priority 2002, dated 2009).

Assays:
[1] = target: T1, cloned human 5-HT1A receptors (Homo sapiens, UniProt P08908); assay: 35S-GTPγS binding assay, 5-HT1A function; type: biochemical; settings: for IC50: antagonist potency, reversal of effects of standard agonist 8-OHDPAT on 35S-GTPγS binding; for 5-HT1A Function (Imax): maximum inhibitory effect, 35S-GTPγS binding, reversal of 8-OHDPAT, unit assumed
T1 construct: expressed in transfected cells
T1 sequence (P08908 1-422): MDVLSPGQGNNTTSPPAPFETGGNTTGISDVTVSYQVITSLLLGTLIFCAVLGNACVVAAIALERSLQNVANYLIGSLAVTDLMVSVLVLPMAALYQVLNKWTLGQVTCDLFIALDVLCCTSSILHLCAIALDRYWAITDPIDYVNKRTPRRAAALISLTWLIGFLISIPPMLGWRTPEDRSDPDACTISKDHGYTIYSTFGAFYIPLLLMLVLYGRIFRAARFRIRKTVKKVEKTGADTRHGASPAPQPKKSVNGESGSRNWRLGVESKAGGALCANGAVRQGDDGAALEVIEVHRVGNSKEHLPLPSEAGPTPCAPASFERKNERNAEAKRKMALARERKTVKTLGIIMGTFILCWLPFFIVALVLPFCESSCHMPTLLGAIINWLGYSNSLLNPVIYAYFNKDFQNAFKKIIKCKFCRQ
Procedure: Antagonist activity at 5-HT1A receptors was established by using a ^35S-GTPγS binding assay similar to that used by Lazareno and Birdsall (Br. J. Pharmacol. 109: 1120, 1993), in which the test compound's ability to affect the binding of ^35S-GTPγS to membranes containing cloned human 5-HT1A receptors was determined. Agonists produce an increase in binding whereas antagonists produce no increase but rather reverse the effects of the standard agonist 8-OHDPAT. The test compound's maximum inhibitory effect is represented as the Imax, while its potency is defined by the IC50.

[2] = target: T2, serotonin transporter (Rattus norvegicus, UniProt P31652); assay: 3H-paroxetine displacement, affinity for the serotonin transporter; type: binding; settings: displacement of 3H-paroxetine from male rat frontal cortical membranes; read-out: 5-HT Transporter Affinity Ki
T2 construct: displace ^3H-paroxetine from male rat frontal cortical membranes; from tissue; host or cells: male rat frontal cortex membranes
T2 sequence (P31652 whole entry): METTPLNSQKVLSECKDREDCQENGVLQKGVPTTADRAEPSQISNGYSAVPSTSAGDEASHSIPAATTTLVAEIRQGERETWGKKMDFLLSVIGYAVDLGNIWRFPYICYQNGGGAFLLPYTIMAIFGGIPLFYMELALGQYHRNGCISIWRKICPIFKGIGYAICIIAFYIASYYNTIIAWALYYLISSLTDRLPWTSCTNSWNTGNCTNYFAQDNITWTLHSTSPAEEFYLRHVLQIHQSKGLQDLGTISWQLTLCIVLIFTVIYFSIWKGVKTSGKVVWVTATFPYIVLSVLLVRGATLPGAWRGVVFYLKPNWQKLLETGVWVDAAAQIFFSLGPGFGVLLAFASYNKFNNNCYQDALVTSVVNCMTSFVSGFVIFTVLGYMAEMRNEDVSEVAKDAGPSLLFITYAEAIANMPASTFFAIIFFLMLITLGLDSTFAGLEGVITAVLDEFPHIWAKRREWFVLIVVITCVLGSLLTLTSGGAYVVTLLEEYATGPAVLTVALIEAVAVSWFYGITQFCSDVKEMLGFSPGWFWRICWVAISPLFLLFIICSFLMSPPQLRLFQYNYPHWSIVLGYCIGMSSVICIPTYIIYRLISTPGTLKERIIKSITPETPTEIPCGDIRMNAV

[3] = target: T3, human 5-HT1A receptors (Homo sapiens, UniProt P08908); assay: [3H] 8-OHDPAT displacement from the 5-HT1A serotonin receptor (transfected CHO cells); type: binding; settings: displacement of [3H] 8-OHDPAT; CHO cells stably transfected with human 5-HT1A receptors; read-out: 5-HT1A Receptor Affinity Ki
T3 construct: expressed in transfected cells; host or cells: CHO cells (stably transfected)
T3 sequence (P08908 1-422): T1 sequence (P08908 1-422)
From the text: High affinity for the serotonin 5-HT1A receptor was established by testing the claimed compound's ability to displace [^3H] 8-OHDPAT (dipropylaminotetralin) from the 5-HT1A serotonin receptor following a modification of the procedure of Hall et al., J. Neurochem. 44, 1685 (1985) which utilizes CHO cells stably transfected with human 5-HT1A receptors.

[4] = target: T1, cloned human 5-HT1A receptors; assay: 35S-GTPγS binding assay, 5-HT1A function; type: biochemical

Row | SMILES | IC50 [1] [nM] | 5-HT1A Function (Imax) [1] [%] | Ki [2] [nM] | Ki [3] [nM] | EC50 ([4]; given as EC50) [nM] | Emax ([4]; given as Emax) [%]
1 | COc1cccc2c1O[C@@H](CN[C@H]1CC[C@H](c3c[nH]c4ccc(F)cc34)C1)CO2 (mixture of isomers) [Example 2, N-[(trans)-3-(5-fluoro-1H-indol-3-yl)cyclopentyl]-N-{[(2S)-8-methoxy-2,3 dihydro-1,4-benzodioxin-2-yl]methyl}amine] | 7 | 99 | 0.6 | 14.5 |  | 
2 | COc1cccc2c1O[C@@H](CN[C@H]1CC[C@@H](c3cn(C)c4ccc(F)cc34)C1)CO2 (mixture of isomers) [Example 3, N-[(cis)-3-(5-fluoro-1-methyl-1H-indol-3-yl)cyclopentyl]-N-{[(2S)-8-methoxy-2,3-dihydro-1,4-benzodioxin-2-yl]methyl}amine] | 152 | 64 | 12 | 10.8 |  | 
3 | COc1cccc2c1O[C@@H](CN[C@H]1CC[C@H](c3cn(C)c4ccc(F)cc34)C1)CO2 (mixture of isomers) [Example 4, N-[(trans)-3-(5-fluoro-1-methyl-1H-indol-3-yl)cyclopentyl]-N-{[(2S)-8-methoxy-2,3-dihydro-1,4-benzodioxin-2-yl]methyl}amine] | 53 | 79 | 3.86 | 3.02 |  | 
4 | CCOc1cccc2c1O[C@@H](CN[C@H]1CC[C@@H](c3c[nH]c4ccc(F)cc34)C1)CO2 (mixture of isomers) [Example 5, N-{[(2S)-8-ethoxy-2,3-dihydro-1,4-benzodioxin-2-yl]methyl}-N-[(cis)-3-(5-fluoro-1H-indol-3-yl)cyclopentyl]amine] | 105 | 48 | 0.6 | 8.09 |  | 
5 | CCOc1cccc2c1O[C@@H](CN[C@H]1CC[C@H](c3c[nH]c4ccc(F)cc34)C1)CO2 (mixture of isomers) [Example 6, N-{[(2S)-8-ethoxy-2,3-dihydro-1,4-benzodioxin-2-yl]methyl}-N-[(trans)-3-(5-fluoro-1H-indol-3-yl)cyclopentyl]amine] | 359 | 25 | 0.43 | 25.2 |  | 
6 | COc1cccc2c1O[C@@H](CN[C@@H]1CC[C@H](c3c[nH]c4ccc(F)cc34)C1)CO2 (single isomer, unassigned) [Example 1-Isomer A, N-[(1R*,3S*)-3-(5-fluoro-1H-indol-3-yl)cyclopentyl]-N-{[(2S)-8-methoxy-2,3-dihydro-1,4-benzodioxin-2-yl]methyl}amine] | 30 | 78 | 1.28 | 7.52 |  | 
7 | COc1cccc2c1O[C@@H](CN[C@H]1CC[C@@H](c3c[nH]c4ccc(F)cc34)C1)CO2 (single isomer, unassigned) [Example 1-Isomer B, N-[(1S*,3R*)-3-(5-fluoro-1H-indol-3-yl)cyclopentyl]-N-{[(2S)-8-methoxy-2,3-dihydro-1,4-benzodioxin-2-yl]methyl}amine] | 22 | 100 | 1.92 | 3.61 |  | 
8 | COc1cccc2c1O[C@@H](CN[C@H]1CC[C@H](c3c[nH]c4ccc(F)cc34)C1)CO2 (single isomer, unassigned) [Example 2-Isomer A, N-[(1S*,3S*)-3-(5-fluoro-1H-indol-3-yl)cyclopentyl]-N-{[(2S)-8-methoxy-2,3-dihydro-1,4-benzodioxin-2-yl]methyl}amine] | 375 | 84 | 1 | 23.6 |  | 
9 | COc1cccc2c1O[C@@H](CN[C@@H]1CC[C@@H](c3c[nH]c4ccc(F)cc34)C1)CO2 (single isomer, unassigned) [Example 2-Isomer B, N-[(1R*,3R*)-3-(5-fluoro-1H-indol-3-yl)cyclopentyl]-N-{[(2S)-8-methoxy-2,3-dihydro-1,4-benzodioxin-2-yl]methyl}amine] | 76 | 32 | 0.8 | 2.05 |  | 
10 | COc1cccc2c1O[C@@H](CN[C@@H]1CC[C@H](c3c[nH]c4ccc(C#N)cc34)C1)CO2 (single isomer, unassigned) [Example 7-Isomer A] |  |  | 0.64 | 5.29 |  | 
11 | COc1cccc2c1O[C@@H](CN[C@H]1CC[C@H](c3c[nH]c4ccc(C#N)cc34)C1)CO2 (single isomer, unassigned) [Example 7-Isomer B] | 24 | 56 | 0.57 | 9.62 |  | 
12 | COc1cccc2c1O[C@@H](CN[C@@H]1CC[C@H](c3cn(C)c4ccc(C#N)cc34)C1)CO2 (single isomer, unassigned) [Example 8-Isomer A] |  |  | 6 | 12.6 | 23 | 64
13 | COc1cccc2c1O[C@@H](CN[C@H]1CC[C@H](c3cn(C)c4ccc(C#N)cc34)C1)CO2 (single isomer, unassigned) [Example 8-Isomer B] |  |  | 8 | 25.5 |  | 
14 | COc1cccc2c1OC(CNC1CCC(c3c[nH]c4ccc(F)cc34)C1)CO2 [Example 1, N-[(cis)-3-(5-fluoro-1H-indol-3-yl)cyclopentyl]-N-{([(2S)-8-methoxy-2,3-dihydro-1,4-benzodioxin-2-yl]methyl}amine] | 55 | 100 | 1.07 | 5.82 |  | 
